According to ChEMBL document CHEMBL1201862, “PubChem BioAssay data set” (2004):
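Protocol summary: plate cells (96-well), add compound at 5 concentrations, incubate 48 h, interpolate endpoints linearly. At the GI50, growth is halved.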 Calls of active or inactive are those of the source. Cut-off read from the data, not from the text of the source: active = GI50 up to about 1.1 µM and inactive = higher.

Experiments:
Test in all cases: NCI anticancer screen, dose series, 48 h
SW-620 = test system: SW-620
IGROV-1 = test system: IGROV-1
UO-31 = test system: UO-31
UACC-257 = test system: UACC-257
SF-295 = test system: SF-295
HCC 2998 = test system: HCC 2998
CCRF-CEM = test system: CCRF-CEM
SNB-75 = test system: SNB-75
SF-539 = test system: SF-539
LOX IMVI = test system: LOX IMVI
NCI-H23 = test system: NCI-H23
SF-268 = test system: SF-268
M14 = test system: M14
RXF 393 = test system: RXF 393
Malme-3M = test system: Malme-3M
SR = test system: SR

Measured: GI50

COc1ccccc1NC(=O)C1=C(C)NC(C)=C(C(=O)Nc2ccccc2OC)C1c1ccc(N(C)C)cc1
inactive: SW-620 36.3 µM | IGROV-1 33.4 µM | UO-31 36 µM | UACC-257 27.9 µM | SF-295 38 µM | HCC 2998 14.5 µM | CCRF-CEM 19.3 µM | SNB-75 30.8 µM | SF-539 37.5 µM | LOX IMVI 15.4 µM | NCI-H23 21.3 µM | SF-268 24.5 µM | M14 22.5 µM | RXF 393 21.7 µM | Malme-3M 36.1 µM

COC(=O)C(=Cc1cc(OC)c(OC)c(OC)c1-c1cc2c(cc1C(C)=O)OCO2)C(=O)OC
inactive: SW-620 46.1 µM | IGROV-1 50.1 µM | UACC-257 52 µM | SF-295 48.5 µM | SR 50.4 µM | HCC 2998 40.3 µM | CCRF-CEM 30.6 µM | SF-539 43.8 µM | LOX IMVI 30.8 µM | NCI-H23 34.7 µM | SF-268 57.1 µM | RXF 393 33.7 µM | Malme-3M 38.7 µM

O=C1[C@H]2ON(c3ccccc3)C(c3ccc([N+](=O)[O-])cc3)[C@H]2C(=O)N1c1ccc(Cc2ccc(N3C(=O)[C@@H]4ON(c5ccccc5)C(c5ccc([N+](=O)[O-])cc5)[C@@H]4C3=O)cc2)cc1 (some centres undefined)
inactive: SW-620 > 100 µM | IGROV-1 > 100 µM | UO-31 > 100 µM | UACC-257 98.9 µM | SF-295 > 100 µM | HCC 2998 > 100 µM | CCRF-CEM > 100 µM | SNB-75 > 100 µM | SF-539 > 100 µM | LOX IMVI > 100 µM | NCI-H23 > 100 µM | SF-268 > 100 µM | M14 13.5 µM | RXF 393 > 100 µM | Malme-3M 58.6 µM

CC(=O)NNc1nc(C)c(C(=O)NNC(=O)C(=O)Nc2c(C)cccc2C(C)C)s1
inactive: SW-620 55.3 µM | IGROV-1 > 100 µM | UO-31 > 100 µM | UACC-257 64.3 µM | SF-295 89.9 µM | SR 40 µM | HCC 2998 > 100 µM | CCRF-CEM 34.5 µM | SF-539 95.9 µM | LOX IMVI 55.5 µM | NCI-H23 > 100 µM | SF-268 59.6 µM | M14 > 100 µM | Malme-3M 59.3 µM

NC(=O)N/N=C/C(/C=N/NC(N)=O)[N+](=O)[O-]
inactive: SW-620 > 100 µM | IGROV-1 > 100 µM | UACC-257 > 100 µM | SF-295 > 100 µM | CCRF-CEM > 100 µM | SNB-75 > 100 µM | SF-539 > 100 µM | LOX IMVI > 100 µM | NCI-H23 > 100 µM | SF-268 > 100 µM | M14 > 100 µM | RXF 393 > 100 µM | Malme-3M > 100 µM

COc1cc2c(c3oc(-c4ccc5c(c4)OCO5)c(O)c(=O)c13)CCC(C)(C)O2
inactive: SW-620 > 100 µM | IGROV-1 > 100 µM | UO-31 > 100 µM | SF-295 > 100 µM | HCC 2998 > 100 µM | CCRF-CEM 79.8 µM | SNB-75 12.3 µM | SF-539 > 100 µM | LOX IMVI > 100 µM | NCI-H23 > 100 µM | M14 > 100 µM

CCOC(=O)Oc1ccc2[nH]c3c(C)cc(N)c(C)c3c2c1
inactive: SW-620 > 100 µM | UO-31 > 100 µM | UACC-257 > 100 µM | SF-295 > 100 µM | SR > 100 µM | HCC 2998 > 100 µM | CCRF-CEM > 100 µM | SNB-75 > 100 µM | SF-539 > 100 µM | LOX IMVI > 100 µM | NCI-H23 > 100 µM | SF-268 > 100 µM | M14 98.4 µM | Malme-3M 87.7 µM

CC(=O)OC1COC(N2C(=O)/C(=N\NC(N)=S)c3cc(Br)ccc32)C(OC(C)=O)C1OC(C)=O (centres undefined)
inactive: SW-620 77.8 µM | IGROV-1 > 100 µM | UACC-257 > 100 µM | SF-295 45.3 µM | SR 19.5 µM | HCC 2998 > 100 µM | CCRF-CEM 5.77 µM | SF-539 43.5 µM | LOX IMVI 38.9 µM | NCI-H23 67.9 µM | SF-268 38.5 µM | M14 > 100 µM | RXF 393 63.5 µM | Malme-3M 32.7 µM

CCCN(CCCC(NC(C)=O)C(=O)NCc1ccccc1)C(=O)NCCCl (centres undefined)
inactive: SW-620 > 100 µM | IGROV-1 > 100 µM | UO-31 > 100 µM | UACC-257 > 100 µM | SF-295 > 100 µM | SR > 100 µM | HCC 2998 > 100 µM | CCRF-CEM > 100 µM | SNB-75 > 100 µM | SF-539 > 100 µM | NCI-H23 > 100 µM | SF-268 > 100 µM | M14 > 100 µM | RXF 393 > 100 µM | Malme-3M > 100 µM

COC(=O)C1=CO[C@@H](OC2CC(CO)C(O)C(O)C2O)[C@@H]2[C@@H](C)[C@@H](OC(=O)/C=C/c3ccccc3)[C@@H](O)[C@H]12.COC(=O)C1=CO[C@@H](OC2CC(CO)C(O)C(O)C2O)[C@@H]2[C@@H](C)[C@@H](OC(=O)c3ccccc3)[C@@H](O)[C@H]12 (some centres undefined)
inactive: SW-620 > 100 µM | IGROV-1 > 100 µM | UO-31 > 100 µM | UACC-257 > 100 µM | SF-295 > 100 µM | SR 66.7 µM | HCC 2998 > 100 µM | CCRF-CEM > 100 µM | SNB-75 > 100 µM | SF-539 > 100 µM | LOX IMVI > 100 µM | NCI-H23 > 100 µM | SF-268 > 100 µM | M14 > 100 µM | Malme-3M > 100 µM

O=C1/C(=C/c2cccc([N+](=O)[O-])c2)COc2ccc(Br)cc21
inactive: SW-620 42.4 µM | IGROV-1 > 100 µM | UO-31 95.5 µM | UACC-257 > 100 µM | SF-295 > 100 µM | HCC 2998 > 100 µM | CCRF-CEM 13.6 µM | SNB-75 55.7 µM | SF-539 > 100 µM | LOX IMVI 37.2 µM | NCI-H23 > 100 µM | SF-268 > 100 µM | RXF 393 > 100 µM | Malme-3M > 100 µM

O=C(Cc1cc[n+]([O-])cc1)C(=O)Nc1cc(Cl)c(Cl)cc1Cl
inactive: SW-620 > 100 µM | IGROV-1 > 100 µM | UO-31 > 100 µM | UACC-257 > 100 µM | SF-295 > 100 µM | HCC 2998 > 100 µM | CCRF-CEM > 100 µM | SNB-75 77.1 µM | SF-539 > 100 µM | NCI-H23 > 100 µM | SF-268 > 100 µM | M14 > 100 µM | RXF 393 > 100 µM | Malme-3M > 100 µM

O=C(Nc1cccs1)c1c(O)[nH]c(=S)[nH]c1=O
inactive: SW-620 > 100 µM | IGROV-1 > 100 µM | UO-31 > 100 µM | UACC-257 > 100 µM | SF-295 > 100 µM | SR > 100 µM | CCRF-CEM > 100 µM | SF-539 > 100 µM | LOX IMVI > 100 µM | NCI-H23 > 100 µM | SF-268 > 100 µM | M14 > 100 µM

CCOC(=O)c1ccn2c(c1)c(C#N)c1nc3ccccc3nc12
inactive: SW-620 50 µM | IGROV-1 5.4 µM | UO-31 42.4 µM | UACC-257 > 100 µM | SR 32.6 µM | HCC 2998 53.1 µM | CCRF-CEM 18.5 µM | SNB-75 13.3 µM | SF-539 > 100 µM | LOX IMVI 29.2 µM | NCI-H23 37.2 µM | SF-268 > 100 µM | M14 > 100 µM | Malme-3M 76 µM

Cc1ccc(C(=O)C(C)N)cc1C (centres undefined)
inactive: SW-620 > 100 µM | IGROV-1 > 100 µM | UO-31 > 100 µM | UACC-257 > 100 µM | SF-295 > 100 µM | HCC 2998 > 100 µM | CCRF-CEM > 100 µM | SNB-75 > 100 µM | SF-539 > 100 µM | LOX IMVI > 100 µM | NCI-H23 > 100 µM | SF-268 > 100 µM | M14 > 100 µM | RXF 393 > 100 µM | Malme-3M > 100 µM

CC(=O)OC1CC2C(C)(C)C(=O)C=C[C@]2(C)C2CCC3(C)C(=CC(=O)C3c3ccoc3)[C@]12C (some centres undefined)
inactive: SW-620 10.5 µM | IGROV-1 16.6 µM | UO-31 18.9 µM | UACC-257 17.4 µM | SF-295 15.2 µM | HCC 2998 12.3 µM | CCRF-CEM 8.47 µM | SNB-75 12.5 µM | SF-539 16.9 µM | LOX IMVI 14.8 µM | NCI-H23 12.7 µM | SF-268 15.6 µM | M14 21 µM | RXF 393 2.3 µM | Malme-3M 17.5 µM

COCC1N=C(c2cc(OC)c(OC)c(OC)c2-c2cc3c(cc2[C@H](C)O)OCO3)O[C@H]1c1ccccc1 (some centres undefined)
inactive: SW-620 > 100 µM | IGROV-1 > 100 µM | UO-31 58.6 µM | SF-295 48.2 µM | HCC 2998 > 100 µM | CCRF-CEM > 10 µM | SNB-75 49.2 µM | SF-539 69.7 µM | LOX IMVI 63.2 µM | NCI-H23 87.7 µM | M14 72.3 µM

C[C@]12CCC(=O)C=C1CC[C@@H]1[C@@H]2[C@@H](O)C[C@@]2(C)[C@H]1CC[C@]2(O)C(=O)COC(=O)CCC1CCCC1 [HYDROCORTISONE CYPIONATE]
inactive: SW-620 > 100 µM | IGROV-1 > 100 µM | UO-31 > 100 µM | UACC-257 > 100 µM | SF-295 > 100 µM | SR > 100 µM | HCC 2998 > 100 µM | CCRF-CEM 95.9 µM | SNB-75 > 100 µM | SF-539 > 100 µM | LOX IMVI > 100 µM | NCI-H23 > 100 µM | SF-268 > 100 µM | RXF 393 > 100 µM | Malme-3M > 100 µM
